The record followed here is patent US7943774B2 (priority 2008, dated 2011).

The nature of the data set: log P (pH2.3). The format is physicochemical. The following applies: method [b]: LC-MS, acidic range, pH 2.7, 0.1% aqueous formic acid and acetonitrile.

Usually chromatographic logP stands for lipophilicity estimated from chromatographic retention.

Turning to `Cc1ccccc1C=Cc1csc(C2CCN(C(=O)Cn3nc(C(F)(F)F)cc3C)CC2)n1` (mixture of isomers) [Example I-166], for the setting “HPLC on reversed-phase C 18”, the log p is 4.23^[b]. On to `Cc1ccccc1C=Cc1csc(C2CCN(C(=O)Cn3nc(C(F)(F)F)cc3C(F)(F)F)CC2)n1` (mixture of isomers) [Example I-174], for which the log p (HPLC on reversed-phase C 18) is 4.93^[b].

Regarding `O=C(Cn1nc(C(F)(F)F)cc1C(F)(F)F)N1CCC(c2nc(C=Cc3ccccc3Br)cs2)CC1` (mixture of isomers) [Example I-175], the log p (HPLC on reversed-phase C 18) is 4.99^[b]. On to `O=C(Cn1nc(C(F)(F)F)cc1C(F)(F)F)N1CCC(c2nc(C=Cc3c(F)cccc3F)cs2)CC1` (mixture of isomers) [Example I-176], for which the log p (HPLC on reversed-phase C 18) is 4.88^[b]. For `Cc1cc(C(F)(F)F)nn1CC(=O)N1CCC(c2nc(C=Cc3c(F)cccc3Cl)cs2)CC1` (mixture of isomers) [Example I-242], the log p (HPLC on reversed-phase C 18) is 4.48^[b]. Consider `Cc1cc(C(F)(F)F)nn1CC(=O)N1CCC(c2nc(/C=C\c3ccccc3)cs2)CC1` [Example I-1], for which the log p is 3.91^[b]. Take `O=C(Cn1ccc(C(F)(F)F)n1)N1CCC(c2nc(/C=C\c3ccccc3)cs2)CC1` [Example I-7]: the log p is 3.72^[b]. Regarding `Cc1c(Cl)c(C(F)(F)F)nn1CC(=O)N1CCC(c2nc(/C=C\c3ccccc3)cs2)CC1` [Example I-8], the log p was 4.56^[b]. As to `Cc1cc(C(F)(F)F)nn1CC(=O)N1CCC(c2nc(/C=C\c3ccc(Cl)cc3)cs2)CC1` [Example I-9], the log p is 4.41^[b].

For the compound `O=C(Cn1ccc(C(F)(F)F)n1)N1CCC(c2nc(/C=C\c3ccc(Cl)cc3)cs2)CC1` [Example I-10], the log p was 4.2^[b ]. `Cc1c(Cl)c(C(F)(F)F)nn1CC(=O)N1CCC(c2nc(/C=C\c3ccc(Cl)cc3)cs2)CC1` [Example I-11]: the log p was 4.92^[b]. Consider `COc1ccc(/C=C\c2csc(C3CCN(C(=O)Cn4nc(C(F)(F)F)cc4C)CC3)n2)cc1` [Example I-12], for which the log p was 3.9^[b]. Consider `COc1ccc(/C=C\c2csc(C3CCN(C(=O)Cn4nc(C(F)(F)F)c(Cl)c4C)CC3)n2)cc1` [Example I-14], for which the log p is 4.46^[b]. On to `Cc1cc(C(F)(F)F)nn1CC(=O)N1CCC(c2nc(/C=C\c3cccc(C(F)(F)F)c3)cs2)CC1` [Example I-15], for which the log p was 4.51^[b]. `O=C(Cn1ccc(C(F)(F)F)n1)N1CCC(c2nc(/C=C\c3cccc(C(F)(F)F)c3)cs2)CC1` [Example I-16]: the log p is 4.3^[b]. Still for that read-out and setting: the value for `Cc1c(Cl)c(C(F)(F)F)nn1CC(=O)N1CCC(c2nc(/C=C\c3cccc(C(F)(F)F)c3)cs2)CC1` [Example I-17] was 5.03^[b]; that for `O=C(Cn1ccc(C(F)(F)F)n1)N1CCC(c2nc(/C=C\c3cccc4ccccc34)cs2)CC1` [Example I-18] was 4.35^[b]. As to `Cc1c(Cl)c(C(F)(F)F)nn1CC(=O)N1CCC(c2nc(/C=C\c3cccc4ccccc34)cs2)CC1` [Example I-19], the log p was 5.14^[b]. Consider `Cc1cc(C(F)(F)F)nn1CC(=O)N1CCC(c2nc(/C=C\c3ccc4ccccc4c3)cs2)CC1` [Example I-20, 2-[5-Methyl-3-(trifluoromethyl)-1H-pyrazol-1-yl]-1-(4-{4-[(Z)-2-(2-naphthyl)vinyl]-1,3-thiazol-2-yl}piperidin-1-yl)ethanone], for which the chromatographic logP (reversed-phase HPLC column (C18)) turned out to be 4.61. Regarding `O=C(Cn1ccc(C(F)(F)F)n1)N1CCC(c2nc(/C=C\c3ccc4ccccc4c3)cs2)CC1` [Example I-21], the log p was 4.35^[b]. `Cc1c(Cl)c(C(F)(F)F)nn1CC(=O)N1CCC(c2nc(/C=C\c3ccc4ccccc4c3)cs2)CC1` [Example I-22]: the log p is 5.08^[b].

As for `Cc1cc(C(F)(F)F)nn1CC(=O)N1CCC(c2nc(/C=C\Cc3ccccc3)cs2)CC1` [Example I-23], the log p was 4.41^[b].

Take `Cc1cc(C(F)(F)F)nn1CC(=O)N1CCC(c2nc(/C=C/c3ccccc3)cs2)CC1` [Example I-26]: the log p is 3.99^[b].
